Experimental data taken from patent US9005670B2, “Use of histone acetyltransferase inhibitors as novel anti-cancer therapies” (The Johns Hopkins University, priority 2010, dated 2015).

Key:
[1] = target: T1, MOZ histone acetyltransferase (Homo sapiens, UniProt Q92794); experiment: MOZ direct radioactive HAT assay; assay type: biochemical; details: 10 μM compound; read-out: Percent inhibition of acetyltransferase, Moz
T1 construct: made in house
Description: (§1) PCAF reactions were performed in 100 mM HEPES, pH 7.9, and contained 200 μM TPP, 5 mM MgCl2, 1 mM DTT, 50 mM NaCl, 0.05 mg/mL BSA, 200 μM NAD, 2.4 mM α-KG, 30 μM acetyl-CoA, 0.037 units α-KGDH, 3.3% DMSO, and 10 μM inhibitor. Reactions took place at 30° C. Reactions were initiated by addition of 10 nM PCAF and were followed at 340 nm over the linear portion of the curve below 10% turnover. AANAT reactions were performed in 100 mM NH4 OAc, pH 6.8, and contained 200 μM TPP, 5 mM MgCl2, 1 mM DTT, 50 mM NaCl, 0.05 mg/mL BSA, 200 μM NAD, 2.4 mM α-KG, 200 μM AcCoA, 0.1 units α-KGDH, 3.3% DMSO, and 10 μM inhibitor. Reactions took place at 25° C. Reactions were initiated with addition of 65 nM AANAT, and followed at 340 nm, as above. Percent inhibition values were compared to those with p300, which were repeated using the protocol given above. […]
(§2) HAT assays with yeast GCN5, SAS complex, MOZ, and Rtt109/Vps75 complex used the direct radioactive assay described above. […] The amount of enzyme used in each assay was estimated by comparing Coomassie Blue staining of samples with bovine serum albumin standards, analyzed by SDS-PAGE. […] The rate of ^14C-incorporation into histone H3 was quantified by autoradiography. […]

[2] = target: T2, yeast GCN5 (Saccharomyces cerevisiae, UniProt Q03330); experiment: GCN5 direct radioactive HAT assay; assay type: biochemical; details: 10 μM compound; read-out: Percent inhibition of acetyltransferase, GCN5
T2 construct: made in house
Description: as §1, §2

T1 sequence (Q92794 497-780 limits assumed): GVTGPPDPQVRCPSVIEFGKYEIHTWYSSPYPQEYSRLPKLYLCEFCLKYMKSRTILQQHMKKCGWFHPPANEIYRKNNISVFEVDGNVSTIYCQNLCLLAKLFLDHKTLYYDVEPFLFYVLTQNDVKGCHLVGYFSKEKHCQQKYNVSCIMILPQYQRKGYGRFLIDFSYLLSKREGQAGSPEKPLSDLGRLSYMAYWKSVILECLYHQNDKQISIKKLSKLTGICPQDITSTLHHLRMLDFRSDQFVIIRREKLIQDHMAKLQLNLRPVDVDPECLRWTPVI
T2 sequence (Q03330 whole entry): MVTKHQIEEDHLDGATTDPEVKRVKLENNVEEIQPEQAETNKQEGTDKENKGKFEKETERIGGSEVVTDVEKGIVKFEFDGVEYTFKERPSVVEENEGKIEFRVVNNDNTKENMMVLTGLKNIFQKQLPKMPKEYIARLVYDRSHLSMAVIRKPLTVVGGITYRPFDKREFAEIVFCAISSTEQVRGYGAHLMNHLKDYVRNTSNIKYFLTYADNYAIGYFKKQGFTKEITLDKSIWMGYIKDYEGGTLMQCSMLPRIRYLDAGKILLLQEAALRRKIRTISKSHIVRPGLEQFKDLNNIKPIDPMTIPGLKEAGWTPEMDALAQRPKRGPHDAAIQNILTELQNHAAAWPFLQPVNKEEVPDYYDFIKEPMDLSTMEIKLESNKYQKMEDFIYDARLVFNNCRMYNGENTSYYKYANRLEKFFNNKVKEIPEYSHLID

`CC1=NN(c2ccc(C(=O)O)cc2)C(=O)C1=Cc1ccc(-c2cc(C)c(C)cc2[N+](=O)[O-])o1` [Compound C646, 4-(4,5-dihydro-3-methyl-4-((5-(4,5-dimethyl-2-nitrophenyl)furan-2-yl)methylene)-5-oxopyrazol-1-yl)benzoic acid] was tested, and the inhibition at 10 µM [1] was less than 10% and the inhibition at 10 µM [2] was less than 10%.
